In patent US20250382289A1, “PYRAZOLOPYRIDINE DERIVATIVE AND APPLICATION THEREOF IN MEDICINE” (XIZANG HAISCO PHARMACEUTICAL CO., LTD., priority 2022, published 2025):
Like-named read-outs stand apart in the source and are kept apart here.

Tests used:
[1] = Pharmacokinetic test in mice; type: in vivo, ICR mice; conditions: plasma, i.g. 10 mg/kg
Description: Experimental animals: Male ICR mice, 25-30 g, were purchased from Chengdu Ddossy Experimental Animals Co., Ltd.
Experimental design: On the day of the experiment, the ICR mice were randomly grouped according to their body weights. The animals were fasted with water available for 12 to 14 h one day before the administration, and were fed 4 h after the administration.
Before and after the administration, blood was taken from the orbit of the animals at specified time points and placed in an EDTAK2 centrifuge tube. The blood was centrifuged at 5000 rpm and 4° C. for 10 min to collect plasma. The blood collection time points for the intravenous group and intragastric administration group were: 0, 5 min, 15 min, 30 min, 1 h, 2 h, 4 h, 7 h, and 24 h. Before analysis and detection, all samples were stored below −60° C. The samples were analyzed quantitatively by LC-MS/MS.

USP1/UAF1 = USP1/UAF1 (Homo sapiens (Human), UniProt O94782); assay: Inhibitory activity on USP1/UAF1 enzymology (ubiquitin rhodamine 110 substrate); type: biochemical; conditions: 0.5 nM USP1/UAF1, 500 nM ubiquitin rhodamine 110
Description: Ubiquitin rhodamine 110 was used as a substrate to detect the activity of the deubiquitinating enzyme USP1/UAF1 after drug treatment. The total test system was 20 μl, and the test buffer comprises 50 mM Tris-HCl (pH 7.8), 0.5 mM EDTA, 0.01% Bovine Serum Albumin, 1 mM DTT, and 0.01% Tween-20. At the beginning of the experiment, 0.5 nM USP1/UAF1 (Bio-Techne, E-568-050) protein was added to a 384-well plate (PerkinElmer, 6008269), and the test compound diluted in a gradient was then added. After incubation at room temperature for 10 min, 500 nM ubiquitin rhodamine 110 (Bio-Techne, U-555-050) was added, and the mixture was incubated at room temperature for 20 min. Enspire™ Multilabel Reader microplate reader (PerkinElmer) was used for detection at excitation light of 485 nm/emission light of 535 nm. The IC50 value was calculated using GraphPad Prism software.

MDA-MB-436 cells = assay: Clone formation test of MDA-MB-436 cells; type: cell-based; conditions: 14 days, crystal violet, OD 570 nm, read-out: IC50 (nM), inhibitory activity on MDA-MB-436 cell clones
Description: In this experiment, MDA-MB-436 cells were treated by adding a test compound to detect the ability of cell clone formation. At the beginning of the experiment, MDA-MB-436 cells (ATCC, HTB-130) were added to a 96-well plate (Corning, 3599), with 500 cells per well, and they were subjected to adherent culture overnight. The next day, the compound diluted in a gradient was added, and culture was continued in a […] incubator at 37° C. On the 7th day, the old culture medium was discarded, and the test compound diluted in a gradient was added again. At the 14th day, the 96-well plate was taken out, the culture liquid was discarded, and cell clones were detected by Crystal violet Assay kit. PHERAstar FSX microplate reader (BMG LABTECH) was used for detection of OD at 570 nm. The IC50 value was calculated using GraphPad Prism software.

[2] = Pharmacokinetic test in beagle dogs; type: in vivo; conditions: i.g. 5 mg/kg
Description: Experimental objective: a single dose of test compounds was administered to beagle dogs intravenously and intragastrically, and the concentrations of the test compounds in plasma of the beagle dogs were measured to evaluate pharmacokinetic characteristics of the test compounds in the beagle dogs.
Experimental animals: male beagle dogs, about 8-11 kg, were purchased from Beijing Marshall Biotechnology Co., Ltd.
Experimental method: On the day of the experiment, the beagle dogs were randomly grouped according to their body weights. The animals were fasted but with water available for 14 to 18 hours one day before administration, and were fed 4 hours after administration. The administration was performed based on the information in the following table.
Vehicle for intravenous administration: 5% DMA+5% Solutol+90% Saline; Vehicle for intragastric administration: 0.5% MC
(DMA: dimethylacetamide; Solutol: polyethylene glycol-60-hydroxystearate; Saline: physiological saline; MC: Methylcellulose solution)
Sampling: Before and after the administration, blood was taken from the jugular veins or limb veins, and placed in an EDTAK2 centrifuge tube. Centrifugation was performed at 5000 rpm at 4° C. for 10 min, and plasma was collected.
Time points for blood collection: 0, 5 min, 15 min, 30 min, 1 h, 2 h, 4 h, 6 h, 8 h, 10 h, 12 h, 24 h, 48 h, and 72 h. Before analysis and detection, all the samples were stored at −60° C. or lower. The samples were analyzed quantitatively by LC-MS/MS.

[3] = Homo sapiens, MDA-MB-436, 336 h

USP1/UAF1, sequence (O94782 whole entry): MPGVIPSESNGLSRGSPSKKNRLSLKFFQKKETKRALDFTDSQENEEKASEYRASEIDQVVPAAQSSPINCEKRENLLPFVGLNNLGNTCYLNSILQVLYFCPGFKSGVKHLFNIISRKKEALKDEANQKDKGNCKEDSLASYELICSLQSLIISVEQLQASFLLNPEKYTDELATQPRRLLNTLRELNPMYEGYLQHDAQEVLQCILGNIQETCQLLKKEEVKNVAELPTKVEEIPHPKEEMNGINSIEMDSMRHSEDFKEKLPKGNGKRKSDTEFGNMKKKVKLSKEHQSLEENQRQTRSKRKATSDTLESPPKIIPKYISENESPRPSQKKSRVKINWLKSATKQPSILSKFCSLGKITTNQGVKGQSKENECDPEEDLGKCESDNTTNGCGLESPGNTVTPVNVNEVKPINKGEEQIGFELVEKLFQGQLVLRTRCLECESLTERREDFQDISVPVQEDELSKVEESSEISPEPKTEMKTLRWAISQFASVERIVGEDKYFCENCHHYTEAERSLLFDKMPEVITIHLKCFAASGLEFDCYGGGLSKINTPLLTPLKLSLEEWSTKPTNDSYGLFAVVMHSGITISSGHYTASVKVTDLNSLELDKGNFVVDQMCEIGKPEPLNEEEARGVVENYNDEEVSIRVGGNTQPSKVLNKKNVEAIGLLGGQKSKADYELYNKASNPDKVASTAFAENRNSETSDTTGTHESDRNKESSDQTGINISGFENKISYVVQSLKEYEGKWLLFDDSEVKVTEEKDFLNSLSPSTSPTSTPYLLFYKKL
USP1/UAF1, sequence (Q8TAF3 whole entry partner): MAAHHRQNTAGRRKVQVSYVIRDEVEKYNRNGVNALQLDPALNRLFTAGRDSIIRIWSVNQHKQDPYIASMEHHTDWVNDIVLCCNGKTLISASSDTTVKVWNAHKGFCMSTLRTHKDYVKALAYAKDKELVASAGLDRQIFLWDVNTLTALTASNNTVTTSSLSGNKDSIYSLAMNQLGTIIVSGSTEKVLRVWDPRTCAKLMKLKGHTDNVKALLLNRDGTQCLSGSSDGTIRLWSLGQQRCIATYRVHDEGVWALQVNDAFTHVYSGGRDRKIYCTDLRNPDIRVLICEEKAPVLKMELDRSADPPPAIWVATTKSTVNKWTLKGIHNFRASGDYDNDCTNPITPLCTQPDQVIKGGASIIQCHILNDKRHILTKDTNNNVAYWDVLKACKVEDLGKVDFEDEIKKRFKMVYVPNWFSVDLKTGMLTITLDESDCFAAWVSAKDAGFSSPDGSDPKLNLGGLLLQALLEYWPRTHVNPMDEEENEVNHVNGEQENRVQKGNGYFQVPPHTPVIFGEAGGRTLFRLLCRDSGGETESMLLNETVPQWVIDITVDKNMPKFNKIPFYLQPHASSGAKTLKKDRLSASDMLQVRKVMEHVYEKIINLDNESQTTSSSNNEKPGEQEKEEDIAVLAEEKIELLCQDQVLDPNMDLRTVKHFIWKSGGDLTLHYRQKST

Row | SMILES | Oral absorption [1] | IC50 (USP1/UAF1) [nM] | IC50 (MDA-MB-436 cells; [3]) [nM] | other results
1 | CC(C)n1cc(C(F)(F)F)nc1C12CCC(Cn3ncc4cnc(-c5c(OC(F)F)ncnc5C5CC5)c(F)c43)(CC1)CC2 [Compound 4] |  | < 20 |  | IC50 (MDA-MB-436 cells): < 200 nM
2 | COc1ncnc(C2CC2)c1-c1ncc2cnn(Cc3ccc(-c4nc(C(F)(F)F)cn4C(C)C)cc3)c2n1 [Control compound A, reference compound] |  |  |  | bioavailability ([2]; male, dog, plasma, po): 15.8%; AUC0-t ([2]; male, dog, po, plasma, read-out: AUC0-t): 994 ng·h/mL
3 | C#CCn1cc(C(F)(F)F)nc1C12CCC(Cn3ncc4cnc(-c5c(OC)ncnc5C5CC5)c(F)c43)(CC1)CC2 [Compound 8] | Yes |  |  | 
4 | [2H]C([2H])([2H])C([2H])(n1cc(C(F)(F)F)nc1C12CCC(Cn3ncc4cnc(-c5c(OC(F)F)ncnc5C5CC5)c(F)c43)(CC1)CC2)C([2H])([2H])[2H] [Compound 15] |  |  | < 200 | 
5 | Fc1c(-c2c(OC(F)F)ncnc2C2CC2)ncc2cnn(CC34CCC(c5nc(C(F)(F)F)cn5CC5CC5)(CC3)CC4)c12 [Compound 10] |  |  | < 200 | 
6 | CC(C)n1cc(C(F)(F)F)nc1-c1ccc(Cn2ncc3cnc(-c4c(OC(F)F)ncnc4C4CC4)c(F)c32)cc1 [Compound 20] |  |  | < 200 | 
7 | COc1ncnc(C2CC2)c1-c1ncc2cnn(CC34CCC(c5nc(C(F)(F)F)cn5C(C)C)(CC3)CC4)c2c1F [Compound 2] | Yes | < 20 |  | F (%) [2]: 41.2%; AUC0-t ([2]; plasma): 6302 ng·h/mL; IC50 (MDA-MB-436 cells): < 200 nM

Now from value to compound, other results behind:

Row | Oral absorption [1] | IC50 (USP1/UAF1) [nM] | IC50 (MDA-MB-436 cells; [3]) [nM] | SMILES | other results
8 | Yes |  |  | Fc1c(-c2c(OC(F)F)ncnc2C2CC2)ncc2cnn(Cc3ccc(-c4nc(C(F)(F)F)c5n4CC(F)(F)C5)cc3)c12 [Compound 14] | 
9 | Yes | < 20 |  | COc1ncnc(C2CC2)c1-c1ncc2cnn(Cc3ccc(-c4nc(C(F)(F)F)cn4C(C)C)cc3)c2c1F [Compound 1] | IC50 (MDA-MB-436 cells): < 200 nM
10 | Yes | < 20 | < 200 | C#CCn1cc(C(F)(F)F)nc1-c1ccc(Cn2ncc3cnc(-c4c(OC)ncnc4C4CC4)c(F)c32)cc1 [Compound 16] | 
11 | Yes |  |  | Fc1c(-c2c(OC(F)F)ncnc2C2CC2)ncc2cnn(Cc3ccc(-c4nc(C(F)(F)F)c5n4CC4(CC4)C5)cc3)c12 [Compound 12] | 
12 | Yes |  |  | COc1ncnc(C2CC2)c1-c1ncc2cnn(Cc3ccc(-c4nc(C(F)(F)F)c5n4CC4(CC4)C5)cc3)c2c1F [Compound 21] | 
13 | Yes |  | < 200 | COc1ncnc(C2CC2)c1-c1ncc2cnn(Cc3ccc(-c4nc(C(F)(F)F)c5n4[C@@H](C)CC5)cc3)c2c1F [Compound 22] | 
